Converted amounts (≈) assume the structure as drawn.
How the values were obtained:
Rattus norvegicus [1] = species on record: Rattus norvegicus; test: Reduction in intraocular pressure in Wistar rat model of dexamethasone-induced elevated IOP assessed as change in intraocular pressure in contralateral eye at 1 % w/v after 6 hrs by tonometry (reference value: 0%); assay type: ADME, organism-based; design: scale not given: the % may be the effect or the level left; conditions: in vivo
Rattus norvegicus [2] = species on record: Rattus norvegicus; test: Reduction in intraocular pressure in Wistar rat model of dexamethasone-induced elevated IOP assessed as change in intraocular pressure in contralateral eye at 1 % w/v after 4 hrs by tonometry (reference value: 0%); assay type: ADME, organism-based; design: scale not given: the % may be the effect or the level left; conditions: in vivo
Rattus norvegicus [3] = species on record: Rattus norvegicus; test: Reduction in intraocular pressure in Wistar rat model of dexamethasone-induced elevated IOP assessed as change in intraocular pressure in contralateral eye at 1 % w/v after 1 hr by tonometry (reference value: 0%); assay type: ADME, organism-based; design: scale not given: the % may be the effect or the level left; conditions: in vivo, topical_or_ocular
Rattus norvegicus [4] = species on record: Rattus norvegicus; test: Reduction in intraocular pressure in Wistar rat model of dexamethasone-induced elevated IOP assessed as change in intraocular pressure at 1 % w/v after 2.5 hrs by tonometry (reference value: 0%); assay type: functional; design: scale not given: the % may be the effect or the level left
Rattus norvegicus [5] = species on record: Rattus norvegicus; test: Reduction in intraocular pressure in Wistar rat model of dexamethasone-induced elevated IOP assessed as change in intraocular pressure at 1 % w/v after 6 hrs by tonometry (reference value: 0%); assay type: functional; design: scale not given: the % may be the effect or the level left
Rattus norvegicus [6] = species on record: Rattus norvegicus; test: Reduction in intraocular pressure in Wistar rat model of dexamethasone-induced elevated IOP assessed as change in intraocular pressure at 1 % w/v after 1 hr by tonometry (reference value: 0%); assay type: functional; design: scale not given: the % may be the effect or the level left
Rattus norvegicus [7] = species on record: Rattus norvegicus; test: Reduction in intraocular pressure in Wistar rat model of dexamethasone-induced elevated IOP assessed as change in intraocular pressure in contralateral eye at 1 % w/v after 2.5 hrs by tonometry (reference value: 0%); assay type: ADME, organism-based; design: scale not given: the % may be the effect or the level left; conditions: in vivo
Rattus norvegicus [8] = species on record: Rattus norvegicus; test: Reduction in intraocular pressure in Wistar rat model of dexamethasone-induced elevated IOP assessed as peak effect time for reduction in intraocular pressure at 1 % w/v by tonometry; assay type: functional, organism-based
Rattus norvegicus [9] = species on record: Rattus norvegicus; test: Reduction in intraocular pressure in Wistar rat model of dexamethasone-induced elevated IOP assessed as onset time for reduction in intraocular pressure at 1 % w/v by tonometry; assay type: functional
Rattus norvegicus [10] = species on record: Rattus norvegicus; test: Reduction in intraocular pressure in Wistar rat model of dexamethasone-induced elevated IOP assessed as change in intraocular pressure in contralateral eye at 1 % w/v after 3 hrs by tonometry (reference value: 0%); assay type: ADME, organism-based; design: scale not given: the % may be the effect or the level left; conditions: in vivo
Rattus norvegicus [11] = species on record: Rattus norvegicus; test: Reduction in intraocular pressure in Wistar rat model of dexamethasone-induced elevated IOP assessed as change in intraocular pressure in contralateral eye at 1 % w/v after 2 hrs by tonometry (reference value: 0%); assay type: ADME, organism-based; design: scale not given: the % may be the effect or the level left; conditions: in vivo
Rattus norvegicus [12] = species on record: Rattus norvegicus; test: Reduction in intraocular pressure in Wistar rat model of dexamethasone-induced elevated IOP assessed as change in intraocular pressure at 1 % w/v after 3 hrs by tonometry (reference value: 0%); assay type: functional; design: scale not given: the % may be the effect or the level left
Rattus norvegicus [13] = species on record: Rattus norvegicus; test: Reduction in intraocular pressure in Wistar rat model of dexamethasone-induced elevated IOP assessed as reduction in intraocular pressure at peak effect time at 1 % w/v by tonometry; assay type: functional; design: scale not given: the % may be the effect or the level left
Rattus norvegicus [14] = species on record: Rattus norvegicus; test: Reduction in intraocular pressure in Wistar rat model of dexamethasone-induced elevated IOP assessed as change in intraocular pressure in contralateral eye at 1 % w/v after 5 hrs by tonometry (reference value: 0%); assay type: ADME, organism-based; design: scale not given: the % may be the effect or the level left; conditions: in vivo
[15] = Antioxidant activity assessed as DPPH free radical scavenging activity after 30 mins by spectrophotometric analysis; assay type: functional
Rattus norvegicus [16] = species on record: Rattus norvegicus; test: Reduction in intraocular pressure in Wistar rat model of dexamethasone-induced elevated IOP assessed as change in intraocular pressure at 1 % w/v after 4 hrs by tonometry (reference value: 0%); assay type: functional; design: scale not given: the % may be the effect or the level left
[17] = Antioxidant activity assessed as DPPH free radical scavenging activity at 150 ug/ml after 30 mins by spectrophotometric analysis; assay type: functional
Rattus norvegicus [18] = species on record: Rattus norvegicus; test: Reduction in intraocular pressure in Wistar rat model of dexamethasone-induced elevated IOP assessed as change in intraocular pressure at 1 % w/v after 2 hrs by tonometry (reference value: 0%); assay type: functional; design: scale not given: the % may be the effect or the level left
[19] = Antioxidant activity assessed as DPPH free radical scavenging activity at 200 ug/ml after 30 mins by spectrophotometric analysis; assay type: functional
Rattus norvegicus [20] = species on record: Rattus norvegicus; test: Reduction in intraocular pressure in Wistar rat model of dexamethasone-induced elevated IOP assessed as change in intraocular pressure at 1 % w/v after 0.5 hrs by tonometry (reference value: 0%); assay type: functional; design: scale not given: the % may be the effect or the level left
Rattus norvegicus [21] = species on record: Rattus norvegicus; test: Reduction in intraocular pressure in Wistar rat model of dexamethasone-induced elevated IOP assessed as change in intraocular pressure in contralateral eye at 1 % w/v after 1.5 hrs by tonometry (reference value: 0%); assay type: ADME, organism-based; design: scale not given: the % may be the effect or the level left; conditions: in vivo
[22] = Antioxidant activity assessed as DPPH free radical scavenging activity at 50 ug/ml after 30 mins by spectrophotometric analysis; assay type: functional
[23] = 1-Octanol/water partition coefficient, log P of compound at 2 mg after 24 hrs by spectrophotometry based shake flask method; assay type: physicochemical
Rattus norvegicus [24] = species on record: Rattus norvegicus; test: Reduction in intraocular pressure in Wistar rat model of dexamethasone-induced elevated IOP assessed as change in intraocular pressure at 1 % w/v after 1.5 hrs by tonometry (reference value: 0%); assay type: functional; design: scale not given: the % may be the effect or the level left
Rattus norvegicus [25] = species on record: Rattus norvegicus; test: Reduction in intraocular pressure in Wistar rat model of dexamethasone-induced elevated IOP assessed as change in intraocular pressure in contralateral eye at 1 % w/v after 0.5 hrs by tonometry (reference value: 0%); assay type: ADME, organism-based; design: scale not given: the % may be the effect or the level left; conditions: in vivo, topical_or_ocular
Rattus norvegicus [26] = species on record: Rattus norvegicus; test: Reduction in intraocular pressure in Wistar rat model of dexamethasone-induced elevated IOP assessed as change in intraocular pressure at 1 % w/v after 5 hrs by tonometry (reference value: 0%); assay type: functional; design: scale not given: the % may be the effect or the level left
[27] = Antioxidant activity assessed as DPPH free radical scavenging activity at 25 ug/ml after 30 mins by spectrophotometric analysis; assay type: functional
[28] = Antioxidant activity assessed as DPPH free radical scavenging activity at 5 ug/ml after 30 mins by spectrophotometric analysis; assay type: functional
[29] = Antioxidant activity assessed as DPPH free radical scavenging activity at 100 ug/ml after 30 mins by spectrophotometric analysis; assay type: functional

Activity (Rattus norvegicus [1]) [%] | Activity (Rattus norvegicus [2]) [%] | Activity (Rattus norvegicus [3]) [%] | Activity (Rattus norvegicus [7]) [%] | Activity (Rattus norvegicus [10]) [%] | Activity (Rattus norvegicus [11]) [%] | Activity (Rattus norvegicus [14]) [%] | IC50 [15] [µg/mL] | SMILES | Activity (Rattus norvegicus [4]) [%] | Activity (Rattus norvegicus [5]) [%] | Activity (Rattus norvegicus [6]) [%] | Tmax (Rattus norvegicus [8]) [h] | Time (Rattus norvegicus [9]) [h] | Activity (Rattus norvegicus [12]) [%] | Activity (Rattus norvegicus [13]) [%] | Activity (Rattus norvegicus [16]) [%] | Activity [17] [%] | Activity (Rattus norvegicus [18]) [%] | Activity [19] [%] | Activity (Rattus norvegicus [20]) [%] | further results
0 | 1.6 | 1.2 | 5.23 | 4.2 | 4.87 | 0 | 95.49 (≈ 251 µM) | O=C(CN1CCN(c2ccc([N+](=O)[O-])cc2)CC1)Nc1nc2ccccc2[nH]1 | 16 | 1.2 | 5.85 | 2.5 | 0.5 | 10.52 | 51.56 | 7.82 | 64.9 | 11.88 | 76.7 | 3.33 | Activity (Rattus norvegicus [21]): 3.5%; Activity [22]: 44.8%; logP at 24 h [23]: 1.94; Activity (Rattus norvegicus [24]): 7.68%; Activity (Rattus norvegicus [25]): 0.83%; Activity (Rattus norvegicus [26]): 4.75%; Activity [27]: 33.9%; Activity [28]: 16.1%; Activity [29]: 51.7%
0 | 1.53 | 1.13 | 4 | 3 | 5.08 | 0 | 88.68 (≈ 208 µM) | O=C(CN1CCN(C(c2ccccc2)c2ccccc2)CC1)Nc1nc2ccccc2[nH]1 | 12.4 | 1.7 | 5.83 | 2.5 | 0.5 | 8.17 | 51.91 | 7.33 | 66.6 | 16.47 | 81.4 | 4.37 | Activity (Rattus norvegicus [21]): 3.43%; Activity [22]: 41.5%; logP at 24 h [23]: 1.89; Activity (Rattus norvegicus [24]): 10.38%; Activity (Rattus norvegicus [25]): 0.77%; Activity (Rattus norvegicus [26]): 3.67%; Activity [27]: 32.9%; Activity [28]: 22.1%; Activity [29]: 53.7%
0 | 0.55 | 2.08 | 6.57 | 2.15 | 5.75 | 0 | 137.54 (≈ 503 µM) | CN1CCN(CC(=O)Nc2nc3ccccc3[nH]2)CC1 | 13.57 | 0.3 | 9.77 | 2.5 | 0.5 | 10.3 | 44.68 | 4.45 | 54.3 | 12.97 | 61.6 | 5.47 | Activity (Rattus norvegicus [21]): 4%; Activity [22]: 33.5%; logP at 24 h [23]: 1.67; Activity (Rattus norvegicus [24]): 11.95%; Activity (Rattus norvegicus [25]): 1.08%; Activity (Rattus norvegicus [26]): 1.35%; Activity [27]: 19.9%; Activity [28]: 11%; Activity [29]: 45%
